From ChEMBL document CHEMBL1156824, “Physicochemical space for optimum oral bioavailability: contribution of human intestinal absorption and first-pass elimination” (J Med Chem, 2010)

How the values were obtained:
clinical = details: human, in vivo
Homo sapiens [1] = organism: Homo sapiens; assay: Hepatic clearance in human; details: in vivo
Homo sapiens [2] = assay: Oral bioavailability in human; details: in vivo
Homo sapiens [3] = organism: Homo sapiens; assay: Fraction escaping hepatic elimination in human; details: in vivo
[4] = Volume of distribution at steady state in human; details: in vivo

Row | SMILES | CL renal (clinical) [mL/min/kg] | CL (Homo sapiens [1]) [mL/min/kg] | F_fraction (Homo sapiens [2]) | Fh (Homo sapiens [3]) | Vd [4] [L/kg]
1 | Cc1ccc(-c2nc3ccc(C)cn3c2CC(=O)N(C)C)cc1 [ZOLPIDEM] | 0.043 | 4.3 | 0.72 |  | 
2 | CCCCNC(=O)NS(=O)(=O)c1ccc(C)cc1 [TOLBUTAMIDE] | 0.0002 |  |  | 0.99 | 
3 | C=CC1=C(C(=O)O)N2C(=O)[C@@H](NC(=O)/C(=N\OCC(=O)O)c3csc(N)n3)[C@H]2SC1 [CEFIXIME] | 0.4 | 0.6 | 0.47 |  | 
4 | Nc1nc(=O)[nH]cc1F [FLUCYTOSINE] |  | 0.02 | 0.84 |  | 
5 | CNC(=C[N+](=O)[O-])NCCSCc1csc(CN(C)C)n1 [NIZATIDINE] |  | 2.5 |  |  | 1
6 | CCCCc1nc(Cl)c(CO)n1Cc1ccc(-c2ccccc2-c2nn[nH]n2)cc1 [LOSARTAN] |  | 7.3 | 0.36 |  | 
7 | CC(C(=O)O)c1ccc(C(=O)c2cccs2)cc1 (centres undefined) [SUPROFEN] | 0.0357 | 0.7 |  |  | 0.04
8 | CCN1CCCC1CNC(=O)c1cc(S(N)(=O)=O)ccc1OC (centres undefined) [SULPIRIDE] |  | 0.1 | 0.27 |  | 2.72
9 | O=C(O)Cc1ccccc1Nc1c(Cl)cccc1Cl [DICLOFENAC] | 0.035 | 3.5 |  | 0.85 | 
10 | CCCc1nc(C)c2c(=O)[nH]c(-c3cc(S(=O)(=O)N4CCN(CC)CC4)ccc3OCC)nn12 |  |  |  |  | 3
11 | CC(=O)N[C@H]1[C@H]([C@H](O)[C@H](O)CO)OC(C(=O)O)=C[C@@H]1N=C(N)N [ZANAMIVIR] |  | 0.2 | 0.03 |  | 
12 | Nc1nc2c(ncn2CCC(CO)CO)c(=O)[nH]1 [PENCICLOVIR] |  | 1.7 | 0.05 |  | 
13 | C[C@@H]1CN(c2c(F)c(N)c3c(=O)c(C(=O)O)cn(C4CC4)c3c2F)C[C@H](C)N1 [SPARFLOXACIN] |  | 2.3 | 0.92 |  | 
14 | COC(=O)C1=C(C)NC(C)=C(C(=O)OCCN(C)Cc2ccccc2)C1c1cccc([N+](=O)[O-])c1 (centres undefined) [NICARDIPINE] |  |  |  |  | 1
15 | N[C@@H](C(=O)N[C@@H]1C(=O)N2C(C(=O)O)=C(CSc3c[nH]nn3)CS[C@H]12)c1ccc(O)cc1 [CEFATRIZINE] |  | 0.7 | 0.75 |  | 
16 | CC(C)NCC(O)c1ccc(NS(C)(=O)=O)cc1 (centres undefined) [SOTALOL] |  | 0.3 | 0.95 |  | 
17 | CC(C)(C)NCC(O)c1ccc(O)c(CO)c1 (centres undefined) [ALBUTEROL] |  |  |  | 0.88 | 
18 | CC(C)c1nc(N(C)S(C)(=O)=O)nc(-c2ccc(F)cc2)c1/C=C/[C@@H](O)C[C@@H](O)CC(=O)O [ROSUVASTATIN] |  | 7.7 | 0.2 |  | 
19 | CCCc1nc2c(C)cc(-c3nc4ccccc4n3C)cc2n1Cc1ccc(-c2ccccc2C(=O)O)cc1 | 0.1 | 8.3 | 0.43 |  | 
20 | COc1ccc(C(CN(C)C)C2(O)CCCCC2)cc1 (centres undefined) [VENLAFAXINE] | 0.6 | 13.4 | 0.42 |  | 
21 | CNCCCN1c2ccccc2CCc2ccccc21 [DESIPRAMINE] |  |  | 0.4 | 0.53 | 

Row | SMILES | CL renal (clinical) [mL/min/kg] | CL (Homo sapiens [1]) [mL/min/kg] | F_fraction (Homo sapiens [2]) | Fh (Homo sapiens [3]) | Vd [4] [L/kg]
22 | O=C(O)P(=O)(O)O [FOSCARNET] |  | 0.4 |  |  | 0.5
23 | CC(C)n1c(/C=C/C(O)CC(O)CC(=O)O)c(-c2ccc(F)cc2)c2ccccc21 (centres undefined) [FLUVASTATIN] |  |  |  | 0.3 | 
24 | CC(C)(C)NC(=O)[C@@H]1C[C@@H]2CCCC[C@@H]2CN1C[C@@H](O)[C@H](Cc1ccccc1)NC(=O)[C@H](CC(N)=O)NC(=O)c1ccc2ccccc2n1 |  |  |  | 0.45 | 
25 | CCCN(CCC)S(=O)(=O)c1ccc(C(=O)O)cc1 [PROBENECID] |  | 0.2 | 1 |  | 
26 | CNS(=O)(=O)Cc1ccc2[nH]cc(CCN(C)C)c2c1 |  | 15.3 | 0.14 |  | 
27 | CCc1nn(CCCN2CCN(c3cccc(Cl)c3)CC2)c(=O)n1CCOc1ccccc1 [NEFAZODONE] | 0.4 | 7.1 | 0.19 |  | 
28 | O=C(O)c1cc(/N=N/c2ccc(O)c(C(=O)O)c2)ccc1O [OLSALAZINE] | 0.3 | 0.9 |  |  | 0.07
29 | C[C@H]1COc2c(N3CCN(C)CC3)c(F)cc3c(=O)c(C(=O)O)cn1c23.C[C@H]1COc2c(N3CCN(C)CC3)c(F)cc3c(=O)c(C(=O)O)cn1c23.O [LEVOFLOXACIN] |  | 0.5 | 0.99 |  | 
30 | CC(=O)Nc1ccc(O)cc1 [ACETAMINOPHEN] |  |  |  |  | 1
31 | CN(C)Cc1nnc2n1-c1ccc(Cl)cc1C(c1ccccc1)=NC2 [ADINAZOLAM] |  | 3.6 | 0.39 |  | 
32 | O=C1C(CC[S+]([O-])c2ccccc2)C(=O)N(c2ccccc2)N1c1ccccc1 (centres undefined) [SULFINPYRAZONE] |  |  | 0.93 |  | 
33 | Nc1ccn([C@H]2CC[C@@H](CO)O2)c(=O)n1 [ZALCITABINE] | 4.5 | 1.1 |  | 0.95 | 
34 | COC(=O)C1=C(C)NC(C)=C(C(=O)OC)C1c1ccccc1[N+](=O)[O-] [NIFEDIPINE] |  |  | 0.5 |  | 
35 | COc1ccc(C(=O)Nc2ccccc2CCC2CCCCN2C)cc1 (centres undefined) [ENCAINIDE] | 0.8 | 12.2 | 0.3 |  | 
36 | CN(C)C(=N)N=C(N)N [METFORMIN] |  |  |  | 1 | 
37 | CCOC(=O)C1=C(C)NC(C)=C(C(=O)OC)C1c1cccc(Cl)c1Cl (centres undefined) [FELODIPINE] |  |  | 0.16 |  | 
38 | Nc1c(CC(=O)O)cccc1C(=O)c1ccc(Br)cc1 [BROMFENAC] | 0.0022 | 1.3 | 0.67 |  | 
39 | O=C(c1ccc(F)cc1)C1CCN(CCn2c(=O)[nH]c3ccccc3c2=O)CC1 [KETANSERIN] | 0.1 | 6.6 | 0.5 |  | 
40 | Cc1nc2n(c(=O)c1CCN1CCC(c3noc4cc(F)ccc34)CC1)CCCC2 [RISPERIDONE] | 0.2 |  | 0.66 |  | 
41 | CC[C@H](C)C(=O)O[C@H]1C[C@@H](C)C=C2C=C[C@H](C)[C@H](CC[C@@H]3C[C@@H](O)CC(=O)O3)[C@H]21 [LOVASTATIN] | 0.7 | 6.5 |  | 0.72 | 
42 | Cc1c(OCC(F)(F)F)ccnc1C[S+]([O-])c1nc2ccccc2[nH]1 (centres undefined) [LANSOPRAZOLE] | 0.044 | 4.4 | 0.85 |  | 

Row | SMILES | CL renal (clinical) [mL/min/kg] | CL (Homo sapiens [1]) [mL/min/kg] | F_fraction (Homo sapiens [2]) | Fh (Homo sapiens [3]) | Vd [4] [L/kg]
43 | Cc1nnc2n1-c1ccc(Cl)cc1C(c1ccccc1)=NC2 [ALPRAZOLAM] | 0.1 | 0.6 |  |  | 0.8
44 | CN1CCN(c2c(F)cc3c(=O)c(C(=O)O)cn(CCF)c3c2F)CC1 [FLEROXACIN] |  | 0.9 |  |  | 1.3
45 | O=[N+]([O-])O[C@@H]1CO[C@H]2[C@@H]1OC[C@@H]2O [ISOSORBIDE MONONITRATE] |  | 1.9 |  |  | 0.7
46 | CO[C@H]1/C=C/O[C@@]2(C)Oc3c(C)c(O)c4c(c3C2=O)C2=NC3(CCN(CC(C)C)CC3)NC2=C(NC(=O)/C(C)=C\C=C\[C@H](C)[C@H](O)[C@@H](C)[C@@H](O)[C@@H](C)[C@H](OC(C)=O)[C@@H]1C)C4=O [RIFABUTIN] |  | 2 | 0.2 | 0.91 | 
47 | CN1Cc2c(N)cccc2C(c2ccccc2)C1 (centres undefined) [NOMIFENSINE] |  | 9.5 |  |  | 6
48 | COc1cccc2c1C(=O)c1c(O)c3c(c(O)c1C2=O)C[C@@](O)(C(=O)CO)C[C@@H]3O[C@H]1C[C@H](N)[C@H](O)[C@H](C)O1 [DOXORUBICIN] |  | 13.2 | 0.05 |  | 
49 | O=C1Cc2cc(CCN3CCN(c4nsc5ccccc45)CC3)c(Cl)cc2N1 [ZIPRASIDONE] | 0.1 | 5 |  |  | 1
50 | COc1ccc2[nH]c([S+]([O-])Cc3ncc(C)c(OC)c3C)nc2c1 (centres undefined) [OMEPRAZOLE] | 0.1 | 8.3 | 0.53 |  | 
51 | O=C1NCC2(CCN(CCc3ccccc3)CC2)O1 [FENSPIRIDE] | 1.8 | 0.8 |  |  | 3
52 | Cc1ncc([N+](=O)[O-])n1CCO [METRONIDAZOLE] | 0.2 | 0.7 |  |  | 0.4
53 | C[C@H](CS)C(=O)N1CCC[C@H]1C(=O)O [CAPTOPRIL] |  |  | 0.62 |  | 
54 | Nc1ccc(S(=O)(=O)c2ccc(N)cc2)cc1 [DAPSONE] |  | 0.4 |  | 0.98 | 
55 | O=C(c1ccccc1)c1ccc2n1CCC2C(=O)O (centres undefined) [KETOROLAC] |  | 0.2 | 1 |  | 
56 | CCN1CCCC1CNC(=O)c1cc(S(=O)(=O)CC)c(N)cc1OC (centres undefined) [AMISULPRIDE] |  | 3.4 |  |  | 5.8
57 | CCOc1ccccc1OC(c1ccccc1)C1CNCCO1 (centres undefined) [REBOXETINE] | 0.041 | 0.8 | 0.95 |  | 
58 | CN(C)c1ccc(O)c2c1C[C@H]1C[C@H]3[C@H](N(C)C)C(O)=C(C(N)=O)C(=O)[C@@]3(O)C(O)=C1C2=O [MINOCYCLINE] | 0.1 | 1.1 | 1 |  | 
59 | CC[C@H]1OC(=O)[C@H](C)[C@@H](O[C@H]2C[C@@](C)(OC)[C@@H](O)[C@H](C)O2)[C@H](C)[C@@H](O[C@@H]2O[C@H](C)C[C@H](N(C)C)[C@H]2O)[C@](C)(O)C[C@@H](C)C(=O)[C@H](C)[C@@H](O)[C@]1(C)O [ERYTHROMYCIN] | 0.3 | 5.3 | 0.35 |  | 
60 | CC[C@H]1OC(=O)[C@H](C)[C@@H](O[C@H]2C[C@@](C)(OC)[C@@H](O)[C@H](C)O2)[C@H](C)[C@@H](O[C@@H]2O[C@H](C)C[C@H](N(C)C)[C@H]2O)[C@](C)(O)C[C@@H](C)CN(C)[C@H](C)[C@@H](O)[C@]1(C)O [AZITHROMYCIN] | 0.5 | 9.6 | 0.34 |  | 
61 | CCOc1ccccc1OCCN[C@H](C)Cc1ccc(OC)c(S(N)(=O)=O)c1 [TAMSULOSIN] | 0.1 | 0.5 | 1 |  | 
62 | O=C(NCCNCC(O)COc1ccc(O)cc1)N1CCOCC1 (centres undefined) [XAMOTEROL] |  | 1.1 | 0.05 |  | 
